# In patent publication US9993494B2, “Compositions and methods for treating fibrotic disease” (eFFECTOR Therapeutics, Inc., priority 2014, dated 2018):
# System: normal human lung fibroblasts
# Experiment: Ribosomal profiling: translational efficiency in TGFβ-treated fibroblasts
# Assay type: cell-based
# Description: Ribosomal profiling allows for measurement of changes in transcription and translation on a genome-wide basis accompanying TGFβ-dependent transformation of fibroblasts to myofibroblasts. Ribosomal profiles of the TGFβ-treated fibroblasts from Example 1 (about 6×10^6 cells/10 cm plate) were prepared and analyzed for changes in translational efficiencies with respect to potential disease-associated cellular changes accompanying this TGFβ-induced transformation.
# Briefly, cells were washed with cold PBS supplemented with cycloheximide and lysed with 1× mammalian cell lysis buffer for 10 minutes on ice. Lysates were clarified by centrifugation for 10 minutes at 14,000 rpm and supernatants were collected. Cell lysates were processed to generate ribosomal protected fragments and total mRNA according to the instructions included with the ARTseq Ribosome Profiling Kit (Illumina, San Diego, Calif.). Sequencing of total RNA (RNA) and of ribosome-protected fragments of RNA (RPF) was carried out using RNA-Seq methodology according to the manufacturer's instructions (Illumina). To analyze the ribosomal profiles, RNA-Seq reads were processed with tools from the FASTX-Toolkit (fastq_quality_trimmer, fastx_clipper and fastx_trimmer). Unprocessed and processed reads were evaluated for a variety of quality measures using FastQC, and processed reads were mapped to the human genome using TopHat (see, e.g., Trapnell et al., Bioinformatics 25:1105, 2009). Gene-by-gene assessment of the number of fragments strictly and uniquely mapping to the coding region of each gene was conducted using HTSeq-count, a component of the HTSeq package. […] Genes with low counts in either RPF or RNA were excluded from differential analyses. Pathway and network analyses of differential data were conducted using Ingenuity Pathway Analysis (IPA).
substance,measurement,setting,value
TGFβ,change in translational profile of CTPS caused by TGFβ,"ENSG00000171793, Control vs. TGFβ",D (D = <1.0 to 1.5)
same,Log2 TE RPS21,"ENSG00000171858, 5 replicates",1.846
same,Log2 TE RPS7,"ENSG00000171863, 5 replicates",1.549
same,Log2 TE QARS,"ENSG00000172053, 5 replicates",1.362
same,change in translational profile of QARS caused by TGFβ,"ENSG00000172053, Control vs. TGFβ",D (D = <1.0 to 1.5)
same,Log2 TE RPL38,"ENSG00000172809, 5 replicates",1.353
same,change in translational profile of RPL38 caused by TGFβ,"ENSG00000172809, Control vs. TGFβ",E (E = <1.5 to 2.5)
same,Log2 TE HSPB7,"ENSG00000173641, 5 replicates",1.292
same,change in translational profile of MRPL45 caused by TGFβ,"ENSG00000174100, Control vs. TGFβ",D (D = <1.0 to 1.5)
same,Log2 TE EVX2,"ENSG00000174279, 5 replicates",2.887
same,Log2 TE RPL4,"ENSG00000174444, 5 replicates",1.688
same,change in translational profile of RPL4 caused by TGFβ,"ENSG00000174444, Control vs. TGFβ",E (E = <1.5 to 2.5)
same,Log2 TE RPL15,"ENSG00000174748, 5 replicates",1.254
same,change in translational profile of RPL15 caused by TGFβ,"ENSG00000174748, Control vs. TGFβ",D (D = <1.0 to 1.5)
same,Log2 TE DES,"ENSG00000175084, 5 replicates",1.204
same,change in translational profile of DES caused by TGFβ,"ENSG00000175084, Control vs. TGFβ",E (E = <1.5 to 2.5)
same,Log2 TE CST6,"ENSG00000175315, 5 replicates",1.241
same,Log2 TE EIF3F,"ENSG00000175390, 5 replicates",1.29
same,change in translational profile of EIF3F caused by TGFβ,"ENSG00000175390, Control vs. TGFβ",D (D = <1.0 to 1.5)
same,Log2 TE CLCF1,"ENSG00000175505, 5 replicates",1.594
same,change in translational profile of CLCF1 caused by TGFβ,"ENSG00000175505, Control vs. TGFβ",E (E = <1.5 to 2.5)
same,Log2 TE AMIGO3,"ENSG00000176020, 5 replicates",−1.314
same,change in translational profile of AMIGO3 caused by TGFβ,"ENSG00000176020, Control vs. TGFβ",C (C = <−1.0 to −1.5)
same,Log2 TE C14orf49,"ENSG00000176438, 5 replicates",−1.044
same,change in translational profile of C14orf49 caused by TGFβ,"ENSG00000176438, Control vs. TGFβ",C (C = <−1.0 to −1.5)
same,Log2 TE RPLP2,"ENSG00000177600, 5 replicates",1.694
same,change in translational profile of RPLP2 caused by TGFβ,"ENSG00000177600, Control vs. TGFβ",E (E = <1.5 to 2.5)
same,Log2 TE RPS27,"ENSG00000177954, 5 replicates",1.429
same,change in translational profile of IMPDH2 caused by TGFβ,"ENSG00000178035, Control vs. TGFβ",D (D = <1.0 to 1.5)
same,Log2 TE DNAJC22,"ENSG00000178401, 5 replicates",−1.189
same,change in translational profile of DNAJC22 caused by TGFβ,"ENSG00000178401, Control vs. TGFβ",B (B = <−1.5 to −2.5)
same,Log2 TE YOD1,"ENSG00000180667, 5 replicates",1.146
same,Log2 TE PGBD4,"ENSG00000182405, 5 replicates",1.055
same,Log2 TE RPL35A,"ENSG00000182899, 5 replicates",1.627
same,change in translational profile of RPL35A caused by TGFβ,"ENSG00000182899, Control vs. TGFβ",E (E = <1.5 to 2.5)
same,change in translational profile of LENG9 caused by TGFβ,"ENSG00000182909, Control vs. TGFβ",D (D = <1.0 to 1.5)
same,change in translational profile of C22orf32 caused by TGFβ,"ENSG00000183172, Control vs. TGFβ",D (D = <1.0 to 1.5)
same,Log2 TE CHEK2,"ENSG00000183765, 5 replicates",−1.457
same,change in translational profile of NPW caused by TGFβ,"ENSG00000183971, Control vs. TGFβ",D (D = <1.0 to 1.5)
same,Log2 TE ALDH1A3,"ENSG00000184254, 5 replicates",−1.327
same,Log2 TE PDE4B,"ENSG00000184588, 5 replicates",−2.021
same,change in translational profile of PDE4B caused by TGFβ,"ENSG00000184588, Control vs. TGFβ",B (B = <−1.5 to −2.5)
same,Log2 TE CDCA2,"ENSG00000184661, 5 replicates",−1.573
same,Log2 TE 5-Sep,"ENSG00000184702, 5 replicates",1.209
same,change in translational profile of ROBO2 caused by TGFβ,"ENSG00000185008, Control vs. TGFβ",C (C = <−1.0 to −1.5)
same,Log2 TE SEMA4B,"ENSG00000185033, 5 replicates",−1.413
same,Log2 TE SH3BGR,"ENSG00000185437, 5 replicates",1.121
same,change in translational profile of PTCH1 caused by TGFβ,"ENSG00000185920, Control vs. TGFβ",D (D = <1.0 to 1.5)
same,Log2 TE POLR1D,"ENSG00000186184, 5 replicates",1.23
same,change in translational profile of POLR1D caused by TGFβ,"ENSG00000186184, Control vs. TGFβ",E (E = <1.5 to 2.5)
same,Log2 TE RPS23,"ENSG00000186468, 5 replicates",1.302
same,Log2 TE DYNC2H1,"ENSG00000187240, 5 replicates",−1.228
same,change in translational profile of DYNC2H1 caused by TGFβ,"ENSG00000187240, Control vs. TGFβ",B (B = <−1.5 to −2.5)
same,Log2 TE TET3,"ENSG00000187605, 5 replicates",1.541
same,Log2 TE ZSCAN23,"ENSG00000187987, 5 replicates",−1.048
same,Log2 TE RPL14,"ENSG00000188846, 5 replicates",1.745
same,change in translational profile of RPL14 caused by TGFβ,"ENSG00000188846, Control vs. TGFβ",E (E = <1.5 to 2.5)
same,change in translational profile of LRRK2 caused by TGFβ,"ENSG00000188906, Control vs. TGFβ",C (C = <−1.0 to −1.5)
same,Log2 TE ZNF33A,"ENSG00000189180, 5 replicates",−1.058
